From patent EP4271680B1, “GOLD (I) COMPLEXES WITH FLUORINATED N-HETEROCYCLIC CARBENE LIGANDS AND USE THEREOF AS THERAPEUTIC AGENTS” (priority 2020, dated 2022)
Where two headings read alike, the source gives them in different places.

Columns and labels:
[1] = tested on: amastigotes axéniques de L. infantum; assay: Anti-leishmanial activity on axenic amastigotes of L. infantum (luciferase luminescence)
[2] = tested on: lignée cellulaire Thp1; assay: Cytotoxicity by MTT test on Thp1 cell line; type: cell-based, humains
Protocol: (§1) L'évaluation de la cytotoxicité des complexes selon l'invention par test MTT sur la lignée cellulaire Thp1 (lignée cellulaire de monocytes humains) a été réalisée selon Mosmann avec de légères modifications. En bref, les cellules (0,77.10^5 cellules/ml) dans 200 µL du milieu complet [RPMI 1640 supplémenté avec 10% de sérum de veau fœtal (FCS), 2 mM de L-glutamine et des antibiotiques (100 U/ml) pénicilline et 100 µg/ml de streptomycine)]+ PMA (50 ng/ml) ont été ensemencées dans chaque puits de plaques à 96 puits et incubées à 37°C sous atmosphère humidifiée à 5% de CO2 avec 95% d'air. Après une incubation de 96 h, les plaques ont été lavées 3 fois avec du milieu et 100 µl de milieu ont été ajoutés. Diverses concentrations et contrôles appropriés ont ensuite été ajoutés (100 µl) et les plaques ont été incubées pendant 72 h à 37°C.
(§2) Chaque puits a ensuite été examiné au microscope pour détecter la formation possible de précipité avant l'aspiration du milieu. Une solution de MTT (0,5 mg/ml dans du RPMI, 100 µl) a ensuite été ajoutée à chaque puits. Les cellules ont été incubées pendant 2 h à 37°C. La solution de MTT a ensuite été éliminée et du DMSO (100 µl) a été ajouté pour dissoudre les cristaux de formazan résultants. Les plaques ont été secouées vigoureusement (300 tr/min) pendant 5 min.
(§3) L'absorbance a été mesurée à 570 nm avec un spectrophotomètre pour microplaques. Le DMSO a été utilisé comme blanc et la doxorubicine (Sigma Aldrich) comme contrôle positif. Les CC50 ont été calculés par analyse de régression non linéaire traitée sur des courbes dose-réponse, à l'aide du logiciel TableCurve 2D V5.

[3] = Cytotoxicity by MTT test on Thp1 cell line; type: cell-based, humains; settings: human
Protocol: as §1, §2, §3

[4] = Leishmania infantum, read-out: Amastigotes axéniques de L. infantum CI50, Tableau 2, mean of three independent experiments
[5] = Leishmania infantum, read-out: Amastigotes axéniques de L. infantum CI50, Tableau 3, separate experiments, mean of three independent experiments
[6] = Tableau 2, CC50 Thp1 / CI50 axenic amastigotes of L. infantum
[7] = Tableau 3, separate experiments, CC50 Thp1 / CI50 axenic amastigotes
[8] = Tableau 3, separate experiments, mean of three independent experiments, read-out: Thp1 CC50
[9] = read-out: CC50 sur la lignée cellulaire humaine Thp1
[10] = Tableau 2, 72 h incubation, mean of three independent experiments, read-out: Thp1 CC50
[11] = Leishmania infantum, read-out: Amastigotes axéniques de L. infantum CI50

For `C[C@@H]1[C@H](O)[C@@H](C)/C=C/C=C/C=C/C=C/C=C/C=C/C=C/[C@H](O[C@@H]2O[C@H](C)[C@@H](O)[C@H](N)[C@@H]2O)C[C@@H]2O[C@](O)(C[C@@H](O)C[C@@H](O)[C@H](O)CC[C@@H](O)C[C@@H](O)CC(=O)O[C@H]1C)C[C@H](O)[C@H]2C(=O)O` [Amphotéricine B, reference compound], the IC50 [1, 4] was 0.075 µM, the IC50 [1, 5] was 0.06 µM and the “Indice de sélectivité CC50/IC50 SI” value [1, 6] was 139,87. For the same compound, the “Indice de sélectivité CC50/IC50 SI” value [1, 7] was 218,83, the CC50 [2, 8] was 13.1 µM and the CC50 [2, 9] was 10.5 µM.
With `FC(F)(F)Oc1ccc(-n2cc[n+](Cc3ccccc3)[c]2[Au-][Cl])cc1` [Complexe 21] the “Indice de sélectivité CC50/IC50 SI” value [1, 6] was 67,85.
With `FC(F)(F)c1cc(-n2cc[n+](Cc3ccccc3)[c]2[Au-][Cl])cc(C(F)(F)F)c1` [Complexe 22] the “Indice de sélectivité CC50/IC50 SI” value [1, 6] was 47,09.
In the case of `FC(F)(F)Oc1cccc(-n2cc[n+](Cc3ccccc3)[c]2[Au-][Cl])c1` [Complexe 23], the “Indice de sélectivité CC50/IC50 SI” value [1, 6] is reported as 62,55.
In the case of `CC(C)[n+]1ccn(-c2ccc(OC(F)(F)F)cc2)[c]1[Au-][Cl]` [Complexe 26], the “Indice de sélectivité CC50/IC50 SI” value [1, 6] is reported as 118,53.
For `CC(C)[n+]1ccn(-c2cc(C(F)(F)F)cc(C(F)(F)F)c2)[c]1[Au-][Cl]` [Complexe 27], the “Indice de sélectivité CC50/IC50 SI” value [1, 6] was 119,72.
For `CC(C)[n+]1ccn(-c2cccc(OC(F)(F)F)c2)[c]1[Au-][Cl]` [Complexe 28], the “Indice de sélectivité CC50/IC50 SI” value [1, 6] was 178.52.
For `CC(C)[n+]1ccn(-c2ccc(F)cc2)[c]1[Au-][Cl]` [Complexe 29], the “Indice de sélectivité CC50/IC50 SI” value [1, 6] was 178,50.
With `FC(F)(F)Oc1ccc(-n2cc[n+](-c3ccc4ccccc4n3)[c]2[Au-][Cl])cc1` [Complexe 31] the “Indice de sélectivité CC50/IC50 SI” value [1, 6] was 136,42.
In the case of `FC(F)(F)Oc1cccc(-n2cc[n+](-c3ccc4ccccc4n3)[c]2[Au-][Cl])c1` [Complexe 33], the “Indice de sélectivité CC50/IC50 SI” value [1, 6] is reported as 129,70.
In the case of `Fc1ccc(-n2cc[n+](-c3ccc4ccccc4n3)[c]2[Au-][Cl])cc1` [Complexe 34], the “Indice de sélectivité CC50/IC50 SI” value [1, 6] is reported as 474,17.
With `FC(F)(F)c1ccc(-n2cc[n+](-c3ccc4ccccc4n3)[c]2[Au-][Cl])cc1` [Complexe 35] the “Indice de sélectivité CC50/IC50 SI” value [1, 6] was 130,05.
For `CC(=O)OCC1OC([S][Au-][c]2n(-c3ccc(OC(F)(F)F)cc3)cc[n+]2Cc2ccccc2)C(OC(C)=O)C(OC(C)=O)C1OC(C)=O` (centres unmarked) [Complexe 36], the “Indice de sélectivité CC50/IC50 SI” value [1, 6] was 53,92.
In the case of `CC(=O)OCC1OC([S][Au-][c]2n(-c3cc(C(F)(F)F)cc(C(F)(F)F)c3)cc[n+]2Cc2ccccc2)C(OC(C)=O)C(OC(C)=O)C1OC(C)=O` (centres unmarked) [Complexe 37], the “Indice de sélectivité CC50/IC50 SI” value [1, 6] is reported as 30,63.
In the case of `CC(=O)OCC1OC([S][Au-][c]2n(-c3cccc(OC(F)(F)F)c3)cc[n+]2Cc2ccccc2)C(OC(C)=O)C(OC(C)=O)C1OC(C)=O` (centres unmarked) [Complexe 38], the “Indice de sélectivité CC50/IC50 SI” value [1, 6] is reported as 23,15.
With `CC(=O)OCC1OC([S][Au-][c]2n(-c3cc(C(F)(F)F)cc(C(F)(F)F)c3)cc[n+]2C(C)C)C(OC(C)=O)C(OC(C)=O)C1OC(C)=O` (centres unmarked) [Complexe 39] the “Indice de sélectivité CC50/IC50 SI” value [1, 6] was 18,79.
In the case of `CC(=O)OCC1OC([S][Au-][c]2n(-c3ccc(F)cc3)cc[n+]2C(C)C)C(OC(C)=O)C(OC(C)=O)C1OC(C)=O` (centres unmarked) [Complexe 40], the “Indice de sélectivité CC50/IC50 SI” value [1, 6] is reported as 13.43.
With `COc1cccc2c1C(=O)c1c(O)c3c(c(O)c1C2=O)C[C@@](O)(C(=O)CO)C[C@@H]3O[C@H]1C[C@H](N)[C@H](O)[C@H](C)O1` [Doxorubicine] the CC50 at 72 h [3, 10] was 0.7 µM and the CC50 at 72 h [3, 8] was 0.7 µM.
For `CSc1ccc(OCc2ncc([N+](=O)[O-])n2C)cc1` [Fexinidazole, reference compound], the IC50 [1, 11] was 3.4 µM, the “Indice de sélectivité CC50/IC50 SI” value [1, 6] was >104,41 and the “Indice de sélectivité CC50/IC50 SI” value ([1]; Tableau 2, CC50 Thp1 / CI50 axenic amastigotes of L. infantum, listed as fexinidazole) was > 104,41. For the same compound, the CC50 at 72 h [3, 10] was > 355 µM and the CC50 at 72 h [3, 9] was > 355 µM.
For `CCCCCCCCCCCCCCCCOP(=O)([O-])OCC[N+](C)(C)C` [Miltéfosine, reference compound], the IC50 [1, 4] was 0.71 µM, the IC50 [1, 5] was 0.46 µM and the “Indice de sélectivité CC50/IC50 SI” value [1, 6] was 49,32. For the same compound, the “Indice de sélectivité CC50/IC50 SI” value ([1]; Tableau 2, CC50 Thp1 / CI50 axenic amastigotes of L. infantum, listed as miltéfosine) was 53,06, the “Indice de sélectivité CC50/IC50 SI” value [1, 7] was 76,13 and the CC50 [2, 8] was 35 µM. For the same compound, the CC50 [2, 9] was 35 µM.
In the case of `N=C(N)c1ccc(OCCCCCOc2ccc(C(=N)N)cc2)cc1` [Pentamidine, reference compound], the IC50 [1, 4] is reported as 10.5 µM, the IC50 [1, 5] is reported as 1.36 µM and the “Indice de sélectivité CC50/IC50 SI” value [1, 6] is reported as >4,74. The “Indice de sélectivité CC50/IC50 SI” value ([1]; Tableau 2, CC50 Thp1 / CI50 axenic amastigotes of L. infantum, listed as pentamidine) was > 4,74, the “Indice de sélectivité CC50/IC50 SI” value [1, 7] was 48.43 and the CC50 at 72 h [3, 10] was > 50 µM. The CC50 at 72 h [3, 8] was 65.9 ± 7.49 µM and the CC50 at 72 h [3, 9] was > 50 µM.
In the case of `FC(F)(F)Oc1ccc(-n2cc[n+](Cc3ccccc3)c2)cc1` [compound 6, Chlorurede 3-Benzyl-1-(4-(trifluorométhoxy)phényl)-1H-imidazol-3-ium], the IC50 [1, 11] is reported as > 50 µM.
With `FC(F)(F)c1cc(-n2cc[n+](Cc3ccccc3)c2)cc(C(F)(F)F)c1` [compound 7, Chlorurede 3-Benzyl-1-(3,5-bis(trifluoromethyl)phenyl)-1H-imidazol-3-ium] the IC50 ([1]; read-out: Amastigotes axéniques de L. infantum CI50, Tableau 2, mean of three independent experiments) was > 50 µM.
In the case of `FC(F)(F)Oc1cccc(-n2cc[n+](Cc3ccccc3)c2)c1` [compound 8, Chlorurede 3-Benzyl-1-(3-(trifluoromethoxy)phenyl)-1H-imidazol-3-ium chloride], the IC50 [1, 11] is reported as > 50 µM.
For `Fc1ccc(-n2cc[n+](Cc3ccccc3)c2)cc1` [compound 9, Chlorurede 3-Benzyl-1-(4-fluorophenyl)-1H-imidazol-3-ium chloride], the IC50 [1, 11] was > 50 µM.
With `FC(F)(F)c1ccc(-n2cc[n+](Cc3ccccc3)c2)cc1` [compound 10, Chlorurede 3-Benzyl-1-(4-(trifluoromethyl)phenyl)-1H-imidazol-3-ium chloride] the IC50 [1, 11] was > 50 µM.
For `CC(C)[n+]1ccn(-c2ccc(OC(F)(F)F)cc2)c1` [compound 11, Bromurede 3-Isopropyl-1-(4-(trifluorométhoxy)phényl)-1H-imidazol-3-ium], the IC50 [1, 11] was > 50 µM.
With `CC(C)[n+]1ccn(-c2cc(C(F)(F)F)cc(C(F)(F)F)c2)c1` [compound 12, Bromurede 1-(3,5-Bis(trifluorométhyl)phényl)-3-isopropyl-1H-imidazol-3-ium] the IC50 [1, 11] was > 50 µM.
For `CC(C)[n+]1ccn(-c2cccc(OC(F)(F)F)c2)c1` [compound 13, Bromurede 3-Isopropyl-1-(3-(trifluorométhoxy)phényl)-1H-imidazol-3-ium], the IC50 [1, 11] was > 50 µM.
With `CC(C)[n+]1ccn(-c2ccc(F)cc2)c1` [compound 14, Bromurede 1-(4-Fluorophényl)-3-isopropyl-1H-imidazol-3-ium] the IC50 [1, 11] was > 50 µM.
With `CC(C)[n+]1ccn(-c2ccc(C(F)(F)F)cc2)c1` [compound 15, Bromurede 3-Isopropyl-1-(4-(trifluoromethyl)phenyl)-1H-imidazol-3-ium] the IC50 [1, 11] was > 50 µM.
With `FC(F)(F)Oc1ccc(-n2cc[n+](-c3ccc4ccccc4n3)c2)cc1` [compound 16, Chlorurede 3-(Quinolin-2-yl)-1-(4-(trifluoromethoxy)phenyl)-1H-imidazol-3-ium] the IC50 [1, 11] was > 50 µM.
With `FC(F)(F)c1cc(-n2cc[n+](-c3ccc4ccccc4n3)c2)cc(C(F)(F)F)c1` [compound 17, Chlorurede 1-(3,5-Bis(trifluoromethyl)phenyl)-3-(quinolin-2-yl)-1H-imidazol-3-ium] the IC50 [1, 4] was 14.5 µM, the “Indice de sélectivité CC50/IC50 SI” value [1, 6] was 3,07 and the “activité anti-leishmanienne (in words)” value ([1]; axenic amastigotes of L. infantum) was “modérément actif”. For the same compound, the “toxicité (in words)” value [2] was “plutôt toxique”.
For `FC(F)(F)Oc1cccc(-n2cc[n+](-c3ccc4ccccc4n3)c2)c1` [compound 18, Chlorurede 3-(Quinolin-2-yl)-1-(3-(trifluoromethoxy)phenyl)-1H-imidazol-3-ium], the IC50 [1, 11] was > 50 µM.
For `Fc1ccc(-n2cc[n+](-c3ccc4ccccc4n3)c2)cc1` [compound 19, Chlorurede 1-(4-Fluorophenyl)-3-(quinolin-2-yl)-1H-imidazol-3-ium], the IC50 [1, 11] was > 50 µM.
For `FC(F)(F)c1ccc(-n2cc[n+](-c3ccc4ccccc4n3)c2)cc1` [compound 20], the IC50 [1, 11] was > 50 µM.
